Experimental findings from publication PMC2825141 (Journal of medicinal chemistry, 2009) are described below.

For assay [1], the target named is T1, G9a (Homo sapiens, UniProt Q96KQ7).
T1 sequence (Q96KQ7 1-1210): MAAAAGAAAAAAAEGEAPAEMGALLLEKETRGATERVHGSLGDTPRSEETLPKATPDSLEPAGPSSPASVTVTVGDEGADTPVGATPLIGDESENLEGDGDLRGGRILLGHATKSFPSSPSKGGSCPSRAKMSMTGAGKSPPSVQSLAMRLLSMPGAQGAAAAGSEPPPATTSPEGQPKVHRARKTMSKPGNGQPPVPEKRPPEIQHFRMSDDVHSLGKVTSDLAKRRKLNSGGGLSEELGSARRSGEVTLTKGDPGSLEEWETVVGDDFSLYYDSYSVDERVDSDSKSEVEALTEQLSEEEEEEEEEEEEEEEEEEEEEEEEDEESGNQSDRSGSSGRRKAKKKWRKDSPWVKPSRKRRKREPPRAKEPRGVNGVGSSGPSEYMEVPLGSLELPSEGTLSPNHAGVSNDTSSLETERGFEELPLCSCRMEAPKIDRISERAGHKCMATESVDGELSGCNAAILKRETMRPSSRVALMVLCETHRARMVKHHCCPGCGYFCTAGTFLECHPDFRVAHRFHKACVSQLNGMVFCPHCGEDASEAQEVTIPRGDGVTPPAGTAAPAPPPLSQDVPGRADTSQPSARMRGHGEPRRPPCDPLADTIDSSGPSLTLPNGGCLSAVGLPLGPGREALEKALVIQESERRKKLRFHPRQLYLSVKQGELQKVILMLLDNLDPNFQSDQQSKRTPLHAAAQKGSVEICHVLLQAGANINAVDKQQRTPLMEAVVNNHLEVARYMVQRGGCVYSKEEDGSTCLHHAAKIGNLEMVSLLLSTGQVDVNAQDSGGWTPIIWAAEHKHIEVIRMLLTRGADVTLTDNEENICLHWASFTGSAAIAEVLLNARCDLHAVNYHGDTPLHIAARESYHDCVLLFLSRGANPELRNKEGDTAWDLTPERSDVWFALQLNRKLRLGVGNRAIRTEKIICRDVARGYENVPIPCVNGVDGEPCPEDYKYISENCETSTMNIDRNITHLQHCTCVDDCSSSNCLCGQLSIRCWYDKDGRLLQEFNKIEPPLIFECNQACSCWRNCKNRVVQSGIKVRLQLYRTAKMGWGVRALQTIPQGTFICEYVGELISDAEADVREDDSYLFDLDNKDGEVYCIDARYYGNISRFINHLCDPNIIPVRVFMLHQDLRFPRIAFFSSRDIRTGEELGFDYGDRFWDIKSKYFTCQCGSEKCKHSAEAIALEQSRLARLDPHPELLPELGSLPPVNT
The assay is described as follows: DSF stabilization of G9a. The class given is binding. The settings on record: compared to 2a.

Assay [2] addresses T1, G9a. As to the kind of experiment: G9a FP assay. The class given is binding. The conditions noted are these: compared to 2a.

SMILES strings stand for the structures.

For `COc1cc2c(NC3CCN(C)CC3)nc(N3CCCN(C)CC3)nc2cc1OCCCN(C)C` [Compound 8], the “Stabilization of G9a in DSF” value in assay [1] is reported as “stabilized G9a better compared to 2a”. Also, the “Displacement of fluorescein labeled 15-mer H3 peptide (1–15)” value in assay [2] is “displaced fluorescein labeled 15-mer H3 peptide (1–15) better than 2a”.
